Experimental data as given in patent US20250066351A1, “PYRAZOLO[1,5-A]PYRIDIN-2,3-YL AMIDES AS KV7 CHANNEL ACTIVATORS” (Biohaven Therapeutics Ltd., priority 2022, published 2025).

Target: T1, hKv7.2/7.3 (Homo sapiens, UniProt O43525+O43526)
T1 construct: host or cells: HEK cells, tetracycline-inducible expression
Assay: Kv7.2/7.3 Activation Assay, QPatch planar patch-clamp single concentration screen
Format: cell-based
Conditions: increase in current over baseline, Kv7.2/Kv7.3 co-expressing HEK cells, compound concentration 3 μM, steady-state current at end of 2 s pulse to −30 mV
Experimental: The ability of compounds to potentiate K-currents in Kv7.2/7.3 containing HEK cells was assessed using planar patch-clamp on the QPatch automated screening platform.
Cell Line: The hKv7.2/7.3 cell line was obtained from Chantest (Cleveland, OH 44128) cat. #CT6147. These HEK cells will express the Kv7.2/7.3 ion channels when induced.
Cell Culture: Cells were maintained in a media containing DMEM/F12; 50/50 (GIBCO cat. #11330), 10% Fetal Bovine Serum (FBS) (GIBCO cat. #26140), 100 units/mL Penicillin-Streptomycin (GIBCO cat. #15140), 0.005 mg/mL Blasticidin (INVIVOGEN cat. #ant-bl-1), 0.5 mg/mL Geneticin (GIBCO cat. #10131), 0.1 mg/mL Zeocin (GIBCO cat. #R25001). Cells used in the electrophysiology assay were maintained in a media without Blasticidin, Geneticin and Zeocin for 2 days and channel expression was induced by adding tetracycline (BIOLINE cat. #BIO-87030) at a final concentration of […]. Cells were grown in T-175 flask to ˜75% confluency. Currents were recorded 24 hours after channel induction.
Compound Plates: Test compounds were prepared by performing serial dilutions on a Biomek NX^P (BECKMAN COULTER). Final dilutions were made in external recording solution with a final DMSO concentration of 0.1% DMSO. For single concentration screens each plate had 10 μM retigabine as a positive control and 0.1% DMSO as a negative control.
Electrophysiology: On the day of the experiment cells were washed with Hank's Balanced Salt Solution (HBBS) (GIBCO cat. #14175) and harvested with Tryple (GIBCO cat. #12604). Cells were then centrifuged at 2000 rpm for 5 minutes and resuspended in CHO—S-SFM (GIBCO cat. #12052) at […]. Cells were stirred for 30 minutes before experiments were started. External recording solution contained (in mM): NaCl (145), KCl (4), CaCl2 (2), MgCl2 (1), HEPES (10) and Glucose (10); pH was adjusted to 7.4 with NaOH and the osmolarity was adjusted to 300-305 mOsM with sucrose if necessary. Internal solution contained (in mM): KCl (125), KF (10), EGTA (5), Na2ATP (5), MgCl2 (3.2), HEPES (5); pH was adjusted to 7.2 with KOH and the osmolarity was adjusted to 298-302 mOsM with sucrose.
Potassium channel activity was measured on the QPatch HTX (Sophion Bioscience) using QPlates with 48-wells/plate. Each cell was taken as an independent experiment and only one compound was tested per well. Potassium channel activity was elicited by holding at −80 mV and stepping to −30 mV for 2 s followed by a 100 ms pulse to −120 mV.
Single concentration screen: Baseline conditions were obtained by recording 5 sweeps in the external solution only, this was repeated for three applications of the external solution. The effect of test compounds on elicited current was then assessed by recording 5 sweeps in the presence of a 3 μM compound solution. The steady-state current at the end of the 2 s pulse to −30 mV was measured to determine the fold increase from baseline.

QPatch Kv7.2/7.3 Activity	Compound
+ (2.0-3.99 (+))	C[C@@](O)(CC(=O)Nc1nn2ccc(C(F)(F)F)cc2c1C1CCC1)c1ccccn1 [Example 35, (R)-N-(3-cyclobutyl-5-(trifluoromethyl)pyrazolo [1,5-a]pyridin-2-yl)-3-hydroxy-3-(pyridin-2-yl)butanamide]
+ (2.0-3.99 (+))	C[C@@](O)(CC(=O)Nc1nn2ccc(C#N)cc2c1C1CCC1)c1ccccn1 [Example 36, (R)-N-(5-cyano-3-cyclobutylpyrazolo[1,5-a]pyridin-2-yl)-3-hydroxy-3-(pyridin-2-yl)butanamide]
++ (4.0-5.99 (++))	C[C@@](O)(CC(=O)Nc1nn2ccc(C(F)(F)F)cc2c1-c1ccc(F)cc1)c1ccccn1 [Example 37, (R)-N-(3-(4-fluorophenyl)-5-(trifluoromethyl)pyrazolo [1,5-a]pyridin-2-yl)-3-hydroxy-3-(pyridin-2-yl)butanamide]
++ (4.0-5.99 (++))	C[C@@](O)(CC(=O)Nc1nn2ccc(C(F)(F)F)cc2c1-c1ccccc1)c1ccccn1 [Example 38, (R)-3-hydroxy-N-(3-phenyl-5-(trifluoromethyl)pyrazolo [1,5-a]pyridin-2-yl)-3-(pyridin-2-yl)butanamide]
+ (2.0-3.99 (+))	C[C@@](O)(CC(=O)Nc1nn2ccc(C(F)(F)F)cc2c1-c1cccc(F)c1)c1ccccn1 [Example 39, (R)-N-(3-(3-fluorophenyl)-5-(trifluoromethyl)pyrazolo [1,5-a]pyridin-2-yl)-3-hydroxy-3-(pyridin-2-yl)butanamide]
+ (2.0-3.99 (+))	Cc1ccc(-c2c(NC(=O)C[C@@](C)(O)c3ccccn3)nn3ccc(C(F)(F)F)cc23)cc1 [Example 40, (R)-3-hydroxy-3-(pyridin-2-yl)-N-(3-(p-tolyl)-5-(trifluoromethyl)pyrazolo[1,5-a]pyridin-2-yl)butanamide]
++ (4.0-5.99 (++))	C[C@](O)(CC(=O)Nc1nn2ccc(C(F)(F)F)cc2c1C1CCC1)c1ccccn1 [Example 41, (S)-N-(3-cyclobutyl-5-(trifluoromethyl)pyrazolo [1,5-a]pyridin-2-yl)-3-hydroxy-3-(pyridin-2-yl)butanamide]
+ (2.0-3.99 (+))	C[C@](O)(CC(=O)Nc1nn2ccc(C(F)(F)F)cc2c1-c1ccc(F)cc1)c1ccccn1 [Example 42, (S)-N-(3-(4-fluorophenyl)-5-(trifluoromethyl)pyrazolo [1,5-a]pyridin-2-yl)-3-hydroxy-3-(pyridin-2-yl)butanamide]
+ (2.0-3.99 (+))	C[C@](O)(CC(=O)Nc1nn2ccc(C#N)cc2c1C1CCC1)c1ccccn1 [Example 43, (S)-N-(5-cyano-3-cyclobutylpyrazolo[1,5-a]pyridin-2-yl)-3-hydroxy-3-(pyridin-2-yl)butanamide]
+ (2.0-3.99 (+))	CC(C)(O)CC(=O)Nc1nn2ccc(C(F)(F)F)cc2c1-c1ccc(Cl)s1 [Example 44, N-(3-(5-chlorothiophen-2-yl)-5-(trifluoromethyl)pyrazolo [1,5-a]pyridin-2-yl)-3-hydroxy-3-methylbutanamide]
+/− (1.2-1.99-fold (+/−))	CC(C)(O)CC(=O)Nc1nn2ccc(C(F)(F)F)cc2c1-c1ccc(Cl)nc1 [Example 45, N-(3-(6-chloropyridin-3-yl)-5-(trifluoromethyl)pyrazolo [1,5-a]pyridin-2-yl)-3-hydroxy-3-methylbutanamide]
+/− (1.2-1.99-fold (+/−))	CC(C)(O)CC(=O)Nc1nn2ccc(C(F)(F)F)cc2c1-c1ccccc1F [Example 46, N-(3-(2-fluorophenyl)-5-(trifluoromethyl)pyrazolo [1,5-a]pyridin-2-yl)-3-hydroxy-3-methylbutanamide]
+ (2.0-3.99 (+))	Cc1cccc(-c2c(NC(=O)CC(C)(C)O)nn3ccc(C(F)(F)F)cc23)c1 [Example 47, 3-hydroxy-3-methyl-N-(3-(m-tolyl)-5-(trifluoromethyl)pyrazolo [1,5-a]pyridin-2-yl)butanamide]
+ (2.0-3.99 (+))	CC(C)(O)CC(=O)Nc1nn2ccc(C(F)(F)F)cc2c1-c1cccc(Cl)c1 [Example 48, N-(3-(3-chlorophenyl)-5-(trifluoromethyl)pyrazolo [1,5-a]pyridin-2-yl)-3-hydroxy-3-methylbutanamide]
+ (2.0-3.99 (+))	CC(C)(O)CC(=O)Nc1nn2ccc(C(F)(F)F)cc2c1-c1ccc(OC(F)(F)F)cc1 [Example 49, 3-hydroxy-3-methyl-N-(3-(4-(trifluoromethoxy)phenyl)-5-(trifluoromethyl)pyrazolo [1,5-a]pyridin-2-yl)butanamide]
+ (2.0-3.99 (+))	CC(C)(O)CC(=O)Nc1nn2ccc(C(F)(F)F)cc2c1-c1ccc(C(F)(F)F)cc1 [Example 50, 3-hydroxy-3-methyl-N-(5-(trifluoromethyl)-3-(4-(trifluoromethyl)phenyl)pyrazolo [1,5-a]pyridin-2-yl)butanamide]
+/− (1.2-1.99-fold (+/−))	Cc1ccccc1-c1c(NC(=O)CC(C)(C)O)nn2ccc(C(F)(F)F)cc12 [Example 51, 3-hydroxy-3-methyl-N-(3-(o-tolyl)-5-(trifluoromethyl)pyrazolo [1,5-a]pyridin-2-yl)butanamide]
− (<1.2-fold (−))	Cn1cc(-c2c(NC(=O)CC(C)(C)O)nn3ccc(C(F)(F)F)cc23)cn1 [Example 52, 3-hydroxy-3-methyl-N-(3-(1-methyl-1H-pyrazol-4-yl)-5-(trifluoromethyl)pyrazolo [1,5-a]pyridin-2-yl)butanamide]
+ (2.0-3.99 (+))	CC(C)(O)CC(=O)Nc1nn2ccc(Cl)cc2c1C1CCC1 [Example 53, N-(5-chloro-3-cyclobutylpyrazolo[1,5-a]pyridin-2-yl)-3-hydroxy-3-methylbutanamide]
− (<1.2-fold (−))	Cn1cc(-c2c(NC(=O)CC(C)(C)O)nn3ccc(C(F)(F)F)cc23)nn1 [Example 54, 3-hydroxy-3-methyl-N-(3-(1-methyl-1H-1,2,3-triazol-4-yl)-5-(trifluoromethyl)pyrazolo [1,5-a]pyridin-2-yl)butanamide]
+ (2.0-3.99 (+))	CC(C)(O)CC(=O)Nc1nn2ccc(C(F)(F)F)cc2c1-c1ccc(F)c(F)c1 [Example 55, N-(3-(3,4-difluorophenyl)-5-(trifluoromethyl)pyrazolo [1,5-a]pyridin-2-yl)-3-hydroxy-3-methylbutanamide]
+ (2.0-3.99 (+))	CC(C)(O)CC(=O)Nc1nn2ccc(C(F)(F)F)cc2c1-c1cc(F)cc(F)c1 [Example 56, N-(3-(3,5-difluorophenyl)-5-(trifluoromethyl)pyrazolo [1,5-a]pyridin-2-yl)-3-hydroxy-3-methylbutanamide]
+ (2.0-3.99 (+))	CC(C)(O)CC(=O)Nc1nn2ccc(Cl)cc2c1-c1ccc(F)cc1 [Example 58, N-(5-chloro-3-(4-fluorophenyl)pyrazolo [1,5-a]pyridin-2-yl)-3-hydroxy-3-methylbutanamide]
+ (2.0-3.99 (+))	CC(C)(C)CC(=O)Nc1nn2ccc(C#N)cc2c1-c1ccc(F)cc1 [Example 59, N-(5-cyano-3-(4-fluorophenyl)pyrazolo [1,5-a]pyridin-2-yl)-3,3-dimethylbutanamide]
++ (4.0-5.99 (++))	CC(C)(C)CC(=O)Nc1nn2cccc(F)c2c1C1CCC1 [Example 60, N-(3-cyclobutyl-4-fluoropyrazolo [1,5-a]pyridin-2-yl)-3,3-dimethylbutanamide]
+/− (1.2-1.99-fold (+/−))	CC(C)(O)CC(=O)Nc1nn2cccc(F)c2c1C1CCC1 [Example 61, N-(3-cyclobutyl-4-fluoropyrazolo[1,5-a]pyridin-2-yl)-3-hydroxy-3-methylbutanamide]
